Assay results: patent publication US20240082272A1, “COMPOSITIONS AND METHODS FOR TREATING WNT-DRIVEN CANCER” (The Regents of the University of Michigan, priority 2020, published 2024)

What was measured:
[1] = tested on: NCI-H295R, ATC7L, and Y1; assay: Viability of ACC cell lines with CBPi alone or combined with EZH2i; assay type: cell-based; details: increasing doses of CBPi combined with EZH2i at the IC-50 dose for each cell line; all ACC cell lines
Protocol: FIG. 20. EZH2i and CBPi are synergistic in ACC cell lines. NCI-H295R, ATC7L, and Y1 were treated with increasing doses of CBPi (PRI-724), alone or in combination with EZH2i at the IC-50 dose for each cell line (EZH2i viability curves for ATC7L and Y1 not shown).
ACC cell lines were treated with a specific and irreversible inhibitor of the H3K27 acetyltransferase CBP (PRI-724 (Kahn, 2014)). CBP regulates H3K27ac deposition genome-wide including at enhancers, and CBP-dependent H3K27ac deposition is required for enhancer activity (Merika et al., 1998; Raisner et al., 2018). Cell lines received the CBP inhibitor (CBPi) either alone or combination with EZH2i at the determined IC-50 dose for that cell line.

[2] = tested on: HSD3B2; assay: HSD3B2 expression by qPCR in NCI-H295R; assay type: cell-based; details: doses under the IC-50
Excerpt: FIG. 7. EZH2i reverses zF differentiation. […] Representative experiment shown, n>3. C.
(§1) FIG. 21. EZH2i and CBPi redundantly disrupt the NCI-H295R transcriptome. […] Right, gene expression changes induced by EZH2i and CBPi are strongly correlated. […] C.

[3] = tested on: NCI-H295R; assay: RNA-seq transcriptome of NCI-H295R after drug treatment; assay type: cell-based; details: for differentially expressed genes overlapping between EZH2i and CBPi: 96-hour IC-50 administration
Protocol: FIG. 6. Forskolin induces faithful zF differentiation and steroidogenesis in NCI-H295R. […] The induction of immediate early response programs is consistent with known mechanisms of action of PKA.
as §1
To evaluate if EZH2i disrupted zF differentiation, the NCI-H295R was treated with the zF differentiation agent forskolin and the transcriptome was profiled by RNA-seq. Despite that CIMP-high as a class is at the zF differentiation maximum across human ACC (FIG. 5), the presence of mutant CTNNB1 in this cell line and high levels of nuclear β-catenin are likely to enable faithful responsiveness to forskolin and refractory response to Wnt/β-catenin stimulants, analogously to the Y1 cell line.
The NCI-H295R response to CBPi was evaluated by RNA-seq and compared to the NCI-H295R response to EZH2i. […] Similarly to EZH2i, CBPi induces downregulation of all core modules that define CIMP-high ACC (FIG. 22). Taken together, the results point to adrenocortical differentiation as a targetable therapeutic vulnerability selected for in CIMP-high ACC.

[4] = tested on: subcutaneous, immunodeficient xenograft model of adrenal cancer; assay: Subcutaneous xenograft model of adrenal cancer; assay type: in vivo, mouse; details: 200 mg/kg PO daily, compared to vehicle
Protocol: To test if disruption of SF1/β-catenin complexes in vivo can cause dedifferentiation (Example 1 and 2) and disrupt tumor growth, the impact of EZH2 inhibition on a xenograft model derived from the Borges et al. Oncogene 2020 genetically engineered mouse model detailed in FIG. 25 was assayed.

SMILES	loss of viability in combination [1]	HSD3B2 expression [2]	steroidogenesis (RNA-seq) [3]	differentially expressed genes overlapping between EZH2i and CBPi [3]	tumor growth [4]	expression of SF1 ([4]; immunohistochemistry)
C[C@H]1[C@H]2N(C(=O)CN(C)N2C(=O)NCc2ccccc2)[C@@H](Cc2ccc(OP(=O)(O)O)cc2)C(=O)N1Cc1cccc2cccnc12 [PRI-724]	synergistic	dose-dependent downregulation	potent downregulation of steroidogenesis	~70%		
CCN(c1cc(-c2ccc(CN3CCOCC3)cc2)cc(C(=O)NCc2c(C)cc(C)[nH]c2=O)c1C)C1CCOCC1 [EPZ-6438]				~70%	decreases tumor growth	decreasing expression of SF1
